Converted amounts (≈) assume the structure as drawn. Bridge positions count the residues as written; N and C are the ends. Square brackets hold non-standard residues; d marks the D form. Peptide text beside a SMILES is read from it. R5 = C=CCCC[C@@](C)(N)C(=O)O
Tests used:
[1] = test system: CLP-induced polymicrobial sepsis in C57BL/6 female mice; test: CLP-induced polymicrobial sepsis model; format: in vivo; settings: for kidney (BUN, CRE) and liver function (GOT, GPT): 24 h after CLP; for survival: 7 days post-operation, i.p. 30 min after CLP, TP4-3 9 mg/kg, meropenem 10 mg/kg, combination 9 mg/kg TP4-3 and 5 mg/kg meropenem, CLP + saline 12.5%
Method: (i) CLP surgery. Cecal ligation and puncture surgery was performed to induce polymicrobial sepsis according to a previously described method ([37]). Female C57BL/6 mice at 6 to 8 weeks of age (weight = 18 to 22 g) were anesthetized by intraperitoneal administration of Zoletil (50 mg/kg). Then, a 1-cm incision was made at the abdomen to expose the cecum. The CLP procedure was performed with a 23-G needle. […] A sham group was subjected to abdomen incision without CLP and treated with saline by intraperitoneal injection. After the treatments, percent survival was used as a measure of test-candidate efficacy ([37]).
(ii) Estimation of bacterial load, cytokine expression, and toxicity profile after CLP and treatment. […] Blood samples were taken in collection tubes. Peritoneal fluid was collected in a sterilized 1.5-mL centrifuge tube. Organs, including the liver, lung, spleen, and kidney, were harvested, weighed, and placed in 1-mL sterile PBS for homogenization with a tissue lyzer (Tissuelyzer II, Qiagen, Dusseldorf, Germany). The homogenates, blood, and peritoneal fluid were diluted serially and plated on Mueller-Hinton broth agar plates. The plates were incubated at 37°C overnight. Each tissue was evaluated by measuring CFU/g ([37]).
To evaluate kidney and liver function, blood samples (n = 5 per group) were tested for ALT (GPT), AST (GOT), CRE, and BUN using a dry-chemistry analyzer as described above. Mouse serum was extracted to assess (n = 5 per group) expression of cytokines (Thermo Fisher Scientific, Waltham, MA) as a measure of inflammatory response ([37]).

Salmonella enterica = test: microbe, parasite or virus in culture; format: cell-based; settings: Salmonella enterica; MHB medium
Method in brief: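 Minimum inhibitory concentration determined visually (clear wells) after 16 to 20 h incubation of 5 × 10^5 CFU/mL with peptide at 37 ± 2°C. A parallel serum sensitivity test used medium containing 50% human serum.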

Staphylococcus aureus = format: cell-based
Method: The antimicrobial assay was performed according to a modified National Committee for Clinical Laboratory Standards (NCCLS) protocol ([41], [42]). Briefly, 5 × 10^5 CFU/mL bacterial cells were treated with various peptide concentrations and incubated at 37 ± 2°C for 16 to 20 h. The lowest concentration with clear wells was recorded as the MIC for each test molecule. The clear wells were further plated in Mueller-Hinton agar (MHA) plates, followed by incubation overnight at 37 ± 2°C. After plating, the lowest concentration at which no growth was observed was recorded as the MBC. For the serum sensitivity assay, the antimicrobial activity of the peptides was tested in medium containing 50% human serum ([43], [44]).

[2] = test system: murine macrophage (RAW 264.7); test: alamarBlue cytotoxicity assay; format: cell-based; settings: at 12.5 μM, 24 h
Method: (§1) (i) Cell culture. Human skin keratinocytes (HaCaT), human kidney (HK-2), and RAW 264.7 macrophage cells were obtained from the Bioresource Collection and Research Center (BCRC, Hsinchu, Taiwan). HaCaT and […] macrophage cells were cultured in Dulbecco’s modified Eagle’s medium (DMEM, Thermo Fischer, MA, USA.) supplemented with 10% FBS, penicillin (100 U/mL), and streptomycin (100 μg/mL) at 37°C under 5% CO2. HK-2 cells were cultured in glucose-free Keratinocyte serum-free medium (K-SFM) supplemented with 0.05 mg/mL bovine pituitary extract (BPE), 5 ng/mL EGF, 100 U/mL penicillin, and […] streptomycin at 37°C in 5% CO2 ([49]).
(§2) In vitro toxicity assay. The cytotoxicity of TP4-3 was evaluated by an alamarBlue assay. HaCaT, HK-2, and RAW 264.7 macrophage cells were seeded at densities of 1 × 10^4 cells/well in 96-well cell plates and treated with the indicated concentrations of TP4 and TP4-3 for 24 h (0.78 to 100 μM). Cells treated with 0.1% Triton X-100 and culture medium served as negative and positive-control groups, respectively. After incubation, the cells were washed and incubated for 2 h at 37°C with 90 μL Dulbecco’s modified Eagle medium (DMEM) containing 10 μL alamarBlue reagent. Fluorescence was recorded using a Spectra Max i3 Multi-Mode detection platform (Molecular Devices, San Jose, CA) to measure cell viability ([50], [51]).

human kidney cell (HK-2) = test: alamarBlue cytotoxicity assay; format: cell-based; settings: at 3.13 μM, 24 h
Method: as §1, §2

[3] = test system: human keratinocyte (HaCaT); test: alamarBlue cytotoxicity assay; format: cell-based; settings: at 3.13 μM, 24 h
Method: as §1, §2

A. baumannii [4] = test: PI membrane permeabilization assay; format: cell-based, Acinetobacter baumannii; settings: 25 μM, 10^8 CFU/mL
Method: Mid-log-phase bacterial cells (A. baumannii) were resuspended in 10 mM PBS (pH 7.4) to a density of 10^8 CFU/mL. The cell suspension was supplemented with 25 mM glucose followed by 15 min incubation at 37°C. After the incubation, N-phenyl-1-naphthylamine dye was added to a final concentration of 10 μM. Next, 90 μL of bacterial cells was transferred to a 96-well black plate, and fluorescence was recorded for 40 min (excitation/emission: 350/420 nm). […] After this treatment, fluorescence was recorded for an additional 20 min ([53]). Data are presented as fluorescence values as a function of time. Permeabilization of blank- and test compound-treated cells was compared. For the PI membrane permeabilization assay, 10^8 bacterial cells (A. baumannii) were resuspended in MHB containing 20 μg/mL PI. […] Fluorescence was read (excitation/emission: 584/620 nm). Fluorescence values of blank- and compound-treated cells were graphed as a function of time ([54], [55]).

A. baumannii [5] = test: DiBAC4(3) membrane depolarization assay; format: cell-based, Acinetobacter baumannii; settings: compared to the blank control
Method: Mid-log-phase A. baumannii bacterial cells were suspended in 10 mM PBS (pH 7.4) at a density of 10^8 CFU/mL. The cell suspension was then supplemented with 25 mM glucose, followed by 15 min incubation at 37°C. Then, the cell suspension was mixed with 500 nM DiBAC4(3) and incubated for 50 min. After incubation, 90 μL of the cell suspension was transferred to a 96-well plate, and fluorescence was recorded (excitation/emission: 480/520 nm) until the signal stabilized (~40 min). […] Data for blank- and compound-treated groups were compared by plotting fluorescence as function of time ([56]).

[6] = 24 h, ELISA, compared to saline-treated group
[7] = 72 h compared to 24 h after treatment

Question: Which “kidney (BUN, CRE) and liver function (GOT, GPT)” value [1] does the source give for `C[C@@H](O)[C@H]1C(=O)N2C(C(=O)O)=C(S[C@@H]3CN[C@H](C(=O)N(C)C)C3)[C@H](C)[C@H]12` [Meropenem] here?
Answer: poor liver function profiles

Question: And the survival [1]?
Answer: 37.5%

Question: And the MBC (Salmonella enterica)?
Answer: 6.25 µM (≈ 2.4 µg/mL)

Question: And the MIC (Salmonella enterica)?
Answer: 3.13 to 6.25 µM (≈ 1.2 to 2.4 µg/mL)

Question: For `CC[C@H](C)[C@H](NC(=O)[C@@H](NC(=O)[C@@H](N)Cc1ccccc1)[C@@H](C)CC)C(=O)N[C@]1(C)CCCC=CCCC[C@](C)(C(=O)NCC(=O)N[C@@H](CC(C)C)C(=O)N[C@@H](Cc2ccccc2)C(=O)N[C@@H](CCCCN)C(=O)N[C@@H](CCCCN)C(=O)N[C@@H](CCCCN)C(=O)N[C@@H](C)C(=O)NCC(=O)N[C@@H](C)C(=O)N[C@]2(C)CCCC=CCCC[C@](C)(C(=O)N[C@H](C(=O)N[C@@H](CCCCN)C(=O)N[C@@H](CCCCN)C(=O)O)[C@@H](C)CC)NC(=O)[C@H](CCCCN)NC(=O)[C@H](CCCCN)NC(=O)[C@H](CCCCN)NC2=O)NC(=O)[C@H](CO)NC(=O)[C@H](CCCCN)NC(=O)[C@H](CCCCN)NC1=O` [TP4-3] (H-FII[R5]KKS[R5]GLFKKKAGA[R5]KKK[R5]IKK-OH; staple 4-8, 18-22; N-terminus and C-terminus assumed), which MBC (Staphylococcus aureus) is on record?
Answer: >25 µM

Question: What about the MIC (Staphylococcus aureus) of the same molecule?
Answer: >25 µM

Question: And the cell death [2]?
Answer: < 10%

Question: What about the cell death (human kidney cell (HK-2)) of the same molecule?
Answer: < 10%

Question: What about the cell death [3] of the same molecule?
Answer: < 10%

Question: And the “serum IL-6 level” value [1, 6]?
Answer: lower levels

Question: And the “serum IL-10 level” value [1, 6]?
Answer: higher level

Question: And the “serum IL-12 level” value [1, 6]?
Answer: no difference

Question: What about the “serum IL-18 level” value [1, 6] of the same molecule?
Answer: lower levels

Question: What about the “serum MCP-1 level” value [1, 6] of the same molecule?
Answer: lower levels

Question: What about the “serum TNF-α level” value [1, 6] of the same molecule?
Answer: lower levels

Question: And the “kidney (BUN, CRE) and liver function (GOT, GPT)” value [1]?
Answer: significantly improved

Question: What about the “bacterial burden in peritoneal lavage fluid” value [1, 7] of the same molecule?
Answer: no significant difference

Question: And the “decrease of bacterial burden, blood” value [1, 7]?
Answer: 54%

Question: What about the “decrease of bacterial burden, kidney” value [1, 7] of the same molecule?
Answer: 51%

Question: And the “decrease of bacterial burden, liver” value [1, 7]?
Answer: 61%

Question: And the “decrease of bacterial burden, lung” value [1, 7]?
Answer: 51%

Question: And the “decrease of bacterial burden, spleen” value [1, 7]?
Answer: 55%

Question: What about the “bacterial burdens in the blood, lung, and liver” value ([1]; 72 h post-treatment, compared to CLP + saline) of the same molecule?
Answer: lower bacterial burdens

Question: And the survival [1]?
Answer: 87.5%

Question: And the “PI fluorescence signal vs controls” value (A. baumannii [4])?
Answer: approximately 3 fold

Question: What about the “DiBAC4(3) fluorescence signal (membrane depolarization)” value (A. baumannii [5]) of the same molecule?
Answer: substantial rise in the fluorescence signal

— article PMC10101059, “Rational Design of Stapled Antimicrobial Peptides to Enhance Stability and In Vivo Potency against Polymicrobial Sepsis” (Microbiology Spectrum, 2023)
